The subject of experiment [1] is contusion SCI. Put plainly: Tissue sparing following moderate contusion SCI, T10 lesion epicenter. It is filed as in vivo. The settings on record: 5 mg/kg, 15 mins post-injury, 48 hours after SCI, p<0.05. Here is the method:
Bar graphs representing the extent of tissue sparing measured through cross-sections of the T10 segment injury epicenters 48 hours after a moderate (150 kydn) contusion SCI. […] Bars represent group means, SEM (n=5-6/group). Using an unpaired t-test, * indicates p<0.05 compared to vehicle-treated groups.

Experiment [2] deals with Adult Sprague-Dawley rats. It is filed as in vivo, rat.
The subject of experiment [3] is humans. The settings on record: cited from earlier work.
The subject of experiment [4] is rat brain. The settings on record: model of focal ischemia-reperfusion injury in the rat brain; cited from earlier work.

Read-outs that look alike come from different tables or passages of the source.

In the case of `O=[N+]([O-])c1ccc(O)c([N+](=O)[O-])c1` [2,4-DNP, 2,4-dinitrophenol], the “cross-sectional area of tissue preservation at lesion epicenter” value in experiment [1] (vs vehicle (DMSO)) is recorded as “significantly greater cross-sectional area of tissue preservation”. Moreover, the “percentage of tissue sparing at the lesion epicenters” value in experiment [1] (vs vehicle controls) was “significantly higher percentage of tissue sparing”. The “tissue sparing compared to vehicle-treated animals” value in experiment [2] (rat, in vivo) is “significantly increased tissue sparing”. Further, the “weight loss as a function of dose” value in experiment [3] (FIG. 1 left panel, regardless of diet or lifestyle) was “very linear increase in weigh loss”. The “metabolism as a function of dosage” value in experiment [3] (FIG. 1 right panel) was “linear increase in metabolism”. Also, the “reduction of infarct volume” value in experiment [4] is “approximately 40%”.
Turning to `N#CC(C#N)=NNc1ccc(OC(F)(F)F)cc1` [FCCP, carbonyl cyanide 4-trifluoromethoxy phenylhydrazone], the “tissue sparing compared to vehicle-treated animals” value in experiment [2] (TBI rats, dosed 5 min post-injury (5 mg/kg 2,4-DNP, 2.5 mg/kg FCCP, 6.2 mg/kg), 15 days post-injury, p<0.01) is on record as “significantly increased tissue sparing”.

The record behind these values is US8501239B2 (priority 2005, dated 2013).
